{"source": "patent US20150284360A1", "about": "“AMIDE DERIVATIVES OF ANILINE-RELATED COMPOUNDS AND COMPOSITIONS THEREOF” (C&C BIOPHARMA, LLC, priority 2014, published 2015)", "data": [{"test": "Solubility of a compound in water", "format": "physicochemical", "details": "compound added until saturated", "method": "Solubility of a compound was obtained by adding the compound into water of known volume (e.g. 1 mL) until saturated, measuring the amount of the compound added, and obtaining the solubility of the compound in water (mg/mL) (Table 9).", "values": [{"compound": "CC(C)[C@H](N)C(=O)Nc1ccccc1NC(=O)CCCCCC(=O)Nc1cccc(Br)c1.Cl", "note": "[Val-CC30•HCl]", "Solubility in Water": "170 mg/mL"}, {"compound": "CC(C)[C@H](N)C(=O)Nc1ccccc1NC(=O)CCCCCC(=O)Nc1ccccc1.Cl", "note": "[Val-PAOA•HCl]", "Solubility in Water": ">100 mg/mL"}, {"compound": "CC(C)C[C@H](N)C(=O)Nc1ccccc1NC(=O)CCCCCC(=O)Nc1cccc(Br)c1.Cl", "note": "[Leu-CC30•HCl]", "Solubility in Water": "50 mg/mL"}, {"compound": "Cl.NCC(=O)Nc1ccccc1NC(=O)c1ccc(CNc2nccc(-c3cccnc3)n2)cc1", "note": "[Gly-MGCD0103•HCl]", "Solubility in Water": ">100 mg/mL"}, {"compound": "C[C@@H](O)[C@H](N)C(=O)Nc1ccccc1NC(=O)CCCCCC(=O)Nc1cccc(Br)c1.Cl", "note": "[Thr-CC30•HCl]", "Solubility in Water": "1350 mg/mL"}, {"compound": "O=C([O-])CCC(=O)Nc1ccccc1NC(=O)CCCCCC(=O)Nc1cccc(Br)c1.[Na+]", "note": "[CC30-Suc-ONa]", "Solubility in Water": "2 mg/mL"}, {"compound": "Cl.Cl.NCCCC[C@H](N)C(=O)Nc1ccccc1NC(=O)c1ccc(CNC(=O)OCc2cccnc2)cc1", "note": "[Lys-MS-275•2HCl]", "Solubility in Water": ">100 mg/mL"}, {"compound": "Nc1ccccc1NC(=O)CCCCCC(=O)Nc1ccccc1", "note": "[PAOA, reference compound]", "Solubility in Water": ".033 mg/mL"}, {"compound": "Cl.N[C@@H](Cc1ccccc1)C(=O)Nc1ccccc1NC(=O)CCCCCC(=O)Nc1cccc(Br)c1", "note": "[Phe-CC30•HCl]", "Solubility in Water": "10 mg/mL"}, {"compound": "Cl.Cl.N[C@@H](Cc1c[nH]cn1)C(=O)Nc1ccccc1NC(=O)CCCCCC(=O)Nc1cccc(Br)c1", "note": "[His-CC30•2HCl]", "Solubility in Water": "130 mg/mL"}, {"compound": "CC(O)C(N)C(=O)Nc1ccccc1NC(=O)c1ccc(CNC(=O)OCc2cccnc2)cc1.Cl", "note": "(stereo not shown) [Thr-MS-275•HCl]", "Solubility in Water": ">100 mg/mL"}, {"compound": "Cl.NCC(=O)Nc1ccccc1NC(=O)c1ccc(CNC(=O)OCc2cccnc2)cc1", "note": "[Gly-MS-275•HCl]", "Solubility in Water": "68 mg/mL"}, {"compound": "Nc1ccccc1NC(=O)c1ccc(CNC(=O)OCc2cccnc2)cc1", "note": "[MS-275, Entinostat, reference compound]", "Solubility in Water": "0.016 mg/mL"}, {"compound": "Cl.NCC(=O)Nc1ccccc1NC(=O)CCCCCC(=O)Nc1ccccc1", "note": "[Gly-PAOA•HCl]", "Solubility in Water": "11 mg/mL"}, {"compound": "N[C@@H](CCC(=O)[O-])C(=O)Nc1ccccc1NC(=O)CCCCCC(=O)Nc1cccc(Br)c1.[Na+]", "note": "[CC30-Glu•Na]", "Solubility in Water": ">100 mg/mL"}, {"compound": "Cl.NC(CO)C(=O)Nc1ccccc1NC(=O)c1ccc(CNC(=O)OCc2cccnc2)cc1", "note": "(stereo not shown) [Ser-MS-275•HCl]", "Solubility in Water": ">100 mg/mL"}, {"compound": "Cl.NC(CO)C(=O)Nc1ccccc1NC(=O)c1ccc(CNc2nccc(-c3cccnc3)n2)cc1", "note": "(stereo not shown) [Ser-MGCD0103•HCl]", "Solubility in Water": ">100 mg/mL"}, {"compound": "CC(C)C(N)C(=O)Nc1ccccc1NC(=O)c1ccc(CNc2nccc(-c3cccnc3)n2)cc1.Cl", "note": "(stereo not shown) [Val-MGCD0103•HCl]", "Solubility in Water": ">100 mg/mL"}, {"compound": "Cl.Cl.NCCCCC(N)C(=O)Nc1ccccc1NC(=O)c1ccc(CNc2nccc(-c3cccnc3)n2)cc1", "note": "(stereo not shown) [Lys-MGCD0103•2HCl]", "Solubility in Water": ">100 mg/mL"}, {"compound": "Cl.NC(=O)C[C@H](N)C(=O)Nc1ccccc1NC(=O)CCCCCC(=O)Nc1cccc(Br)c1", "note": "[Asn-CC30•HCl]", "Solubility in Water": "30 mg/mL"}, {"compound": "Cl.Cl.NCCCC[C@H](N)C(=O)Nc1ccccc1NC(=O)CCCCCC(=O)Nc1ccccc1", "note": "[Lys-PAOA•2HCl]", "Solubility in Water": ">100 mg/mL"}, {"compound": "Cl.N[C@@H](CO)C(=O)Nc1ccccc1NC(=O)CCCCCC(=O)Nc1cccc(Br)c1", "note": "[Ser-CC30•HCl]", "Solubility in Water": "10 mg/mL"}, {"compound": "C[C@@H](O)[C@H](N)C(=O)Nc1ccccc1NC(=O)c1ccc(CNc2nccc(-c3cccnc3)n2)cc1.Cl", "note": "[Thr-MGCD0103•HCl]", "Solubility in Water": ">100 mg/mL"}, {"compound": "Cl.NCC(=O)Nc1ccccc1NC(=O)CCCCCC(=O)Nc1cccc(Br)c1", "note": "[Gly-CC30•HCl]", "Solubility in Water": "10 mg/mL"}, {"compound": "Nc1ccccc1NC(=O)c1ccc(CNc2nccc(-c3cccnc3)n2)cc1", "note": "[MGCD0103, Mocetinostat, reference compound]", "Solubility in Water": "<1 mg/mL"}, {"compound": "Cl.Cl.NCCC[C@H](N)C(=O)Nc1ccccc1NC(=O)CCCCCC(=O)Nc1cccc(Br)c1", "note": "[Orn-CC30•HCl]", "Solubility in Water": "720 mg/mL"}, {"compound": "CC(C)[C@H](N)C(=O)Nc1ccccc1NC(=O)c1ccc(CNC(=O)OCc2cccnc2)cc1.Cl", "note": "[Val-MS-275•HCl]", "Solubility in Water": ">100 mg/mL"}, {"compound": "Cl.Cl.N=C(N)NCCC[C@H](N)C(=O)Nc1ccccc1NC(=O)CCCCCC(=O)Nc1cccc(Br)c1", "note": "[Arg-CC30•HCl]", "Solubility in Water": "100 mg/mL"}]}]}
